Where two headings read alike, the source gives them in different places. Each block holds one compound with its values, some of them ahead of it.
Experiments:
[1] = test system: GFP-A549 human lung cancer cells
[2] = for Total drug levels (PS V plus its metabolites): plasma
[3] = set-up: unit not given beside the values; conditions: mouse, in vivo, inhaled or intranasal
lung cancer = conditions: curcumin as a single agent, pre-clinical models of lung cancer; cited from earlier work

Compound: CCOP(=O)(OCC)OCCCCOC(=O)CC1=C(C)/C(=C/c2ccc([S+](C)[O-])cc2)c2ccc(F)cc21 (stereo not drawn) [PS V, phospho-sulindac]
tumor size by luminosity ([1]; at sacrifice, Mean±SEM, control = 19.85±4.33, p < 0.001): 5.05±2.97
tumor size by lung weight ([1]; at sacrifice, Mean±SEM, control = 385.7±85.2 mg, p < 0.001): 204.4 ± 39.4 mg
death rate ([1]; end of the study, aerosol of 50 mg/mL PS V for 8 min, control group 40 %, p < 0.03): less than 10%
level of intact PS V in the lungs ([2]; inhalational, 6.5 mg/kg body weight): > 20 nmol/g
level of intact PS V in the lungs ([2]; oral administration, 150 mg/kg body weight): < 2 nmol/g
Total drug levels (PS V plus its metabolites) ([2]; after inhalation treatment, 6.5 mg/kg): 17 µM
Total drug levels (PS V plus its metabolites) ([2]; after oral administration, 150 mg/kg): 348 µM

AUC [3]: 30.1
Compound: CC1=C(CC(=O)O)c2cc(F)ccc2/C1=C\c1ccc([S+](C)[O-])cc1 (stereo not drawn) [Sulindac, sulindac]

Compound: COc1cc(/C=C/C(=O)CC(=O)/C=C/c2ccc(O)c(OC)c2)ccc1O [curcumin]
efficacy (lung cancer): < 30%

From patent EP2711006A1, “Product Comprising a Nicotine-Containing Material and an Anti-Cancer Agent” (Rigas, Basil, priority 2012, dated 2014)
